Laboratory results: patent US20130059783A1, “COMPOSITIONS AND METHODS FOR EXPANDING BFU-E CELLS” (priority 2010, published 2013)

System: mRNA expression in BFU-E cells
Test: mRNA-Seq of BFU-E cells cultured 4 hours with or without Dex (Table S3)
Format: cell-based, mouse
Conditions: for Expression level log2((100 nM DEX)* (0 nM DEX)) / Expression of mRNA in BFU-E after 4 h 100 nM DEX (RPKM) / Expression change log2 ((100 nM DEX)/(0 nM DEX))2 / Expression change log2 ((100 nM DEX)/(0 nM DEX)): BFU-E, 4 h; for Expression change log2 ((100 nM DEX)/(0 nM DEX)): 100 nM vs 0 nM DEX
Description: FIGS. 2A-2B. The effect of glucocorticoids on miRNA and mRNA expression in BFU-E cells determined by next generation sequencing. […] Both mRNAs and miRNAs were subjected to Illumina deep sequencing. […] (B) A plot similar to that in A for expression of individual mRNAs. mRNA expression was normalized using the RPKM method, which determines the relative expression of each gene to all expressed genes by giving each gene an RPKM count (number of uniquely aligning reads per kb exon per million total reads). […]
To minimize the risk of false positive GC target genes we chose to compare only highly expressed genes (≈10,000 genes with a multiplied RPKM count >4) (Mortazavi et al., 2008).
Samples for Paired-End mRNA-Seq were prepared using the Solexa kit according to the manufacturer's instructions with the exception that we extracted 300 bp bands, before and after the PCR step (Illumina). Images acquired from the Solexa sequencer were processed through the bundled Solexa image extraction pipeline version 1.4. mRNA-Seq reads were aligned to mouse NCBI build 37 (mm9) using ELAND, Briefly, the first 32 bases of a read were used as a seed. Each matched seed was then extended up to 36 bases and scored to break any ties between multi-matches. For mRNA expression counts, unique reads in the genome that landed within any exons of NCBI gene models (v37.1) were counted. The counts were normalized by the mRNA length to get the final RPKM values (i.e. reads per KB per million reads).

C[C@@H]1C[C@H]2[C@@H]3CCC4=CC(=O)C=C[C@]4(C)[C@@]3(F)[C@@H](O)C[C@]2(C)[C@@]1(O)C(=O)CO [Dex, dexamethasone]
Expression level log2((100 nM DEX)* (0 nM DEX)) (gene Kit): 12.13 | Expression of mRNA in BFU-E after 4 h 100 nM DEX (RPKM) (gene Kit): 97.02 RPKM | Expression level log2((100 nM DEX)* (0 nM DEX)) (gene Klf9): 4.86 | Expression of mRNA in BFU-E after 4 h 100 nM DEX (RPKM) (gene Klf9): 8.07 RPKM | Expression change log2 ((100 nM DEX)/(0 nM DEX))2 (gene Klf13): 1.37 | Expression level log2((100 nM DEX)* (0 nM DEX)) (gene Klf13): 8.41 | Expression of mRNA in BFU-E after 4 h 100 nM DEX (RPKM) (gene Klf13): 29.57 RPKM | Expression of mRNA in BFU-E after 4 h 100 nM DEX (RPKM) (gene Lama5): 3.90 RPKM | Expression change log2 ((100 nM DEX)/(0 nM DEX))2 (gene Lrfn1): 1.05 | Expression level log2((100 nM DEX)* (0 nM DEX)) (gene Lrfn1): 2.45 | Expression of mRNA in BFU-E after 4 h 100 nM DEX (RPKM) (gene Lrfn1): 3.37 RPKM | Expression of mRNA in BFU-E after 4 h 100 nM DEX (RPKM) (gene Maff): 6.11 RPKM | Expression change log2 ((100 nM DEX)/(0 nM DEX)) (gene Maff): 2.58 | Expression level log2((100 nM DEX)* (0 nM DEX)) (gene Man2a2): 9.07 | Expression of mRNA in BFU-E after 4 h 100 nM DEX (RPKM) (gene Man2a2): 35.22 RPKM | Expression level log2((100 nM DEX)* (0 nM DEX)) (gene Mobkl2c): 5.14 | Expression of mRNA in BFU-E after 4 h 100 nM DEX (RPKM) (gene Mobkl2c): 8.65 RPKM | Expression of mRNA in BFU-E after 4 h 100 nM DEX (RPKM) (gene Mt2): 1306.42 RPKM | Expression change log2 ((100 nM DEX)/(0 nM DEX))2 (gene Nags): 1.02 | Expression level log2((100 nM DEX)* (0 nM DEX)) (gene Nags): 2.04 | Expression of mRNA in BFU-E after 4 h 100 nM DEX (RPKM) (gene Nags): 2.88 RPKM | Expression of mRNA in BFU-E after 4 h 100 nM DEX (RPKM) (gene Ncoa7): 7.54 RPKM | Expression change log2 ((100 nM DEX)/(0 nM DEX))2 (gene Nfkbia): 1.36 | Expression level log2((100 nM DEX)* (0 nM DEX)) (gene Nfkbia): 4.55 | Expression of mRNA in BFU-E after 4 h 100 nM DEX (RPKM) (gene Nfkbia): 7.75 RPKM | Expression of mRNA in BFU-E after 4 h 100 nM DEX (RPKM) (gene Nhej1): 4.51 RPKM | Expression level log2((100 nM DEX)* (0 nM DEX)) (gene Nrgn): 7.68 | Expression of mRNA in BFU-E after 4 h 100 nM DEX (RPKM) (gene Nrgn): 21.01 RPKM | Expression of mRNA in BFU-E after 4 h 100 nM DEX (RPKM) (gene Per1): 23.34 RPKM | Expression change log2 ((100 nM DEX)/(0 nM DEX)) (gene Per1): 2.30 | Expression of mRNA in BFU-E after 4 h 100 nM DEX (RPKM) (gene Pex11a): 5.87 RPKM | Expression of mRNA in BFU-E after 4 h 100 nM DEX (RPKM) (gene Pfkfb4): 12.25 RPKM | Expression change log2 ((100 nM DEX)/(0 nM DEX)) (gene Pfkfb4): 2.47 | Expression level log2((100 nM DEX)* (0 nM DEX)) (gene Pld6): 2.64 | Expression of mRNA in BFU-E after 4 h 100 nM DEX (RPKM) (gene Pld6): 3.65 RPKM | Expression of mRNA in BFU-E after 4 h 100 nM DEX (RPKM) (gene Plk3): 5.75 RPKM | Expression change log2 ((100 nM DEX)/(0 nM DEX)) (gene Plk3): 1.76 | Expression level log2((100 nM DEX)* (0 nM DEX)) (gene Polr3gl): 3.89 | Expression of mRNA in BFU-E after 4 h 100 nM DEX (RPKM) (gene Polr3gl): 5.93 RPKM | Expression level log2((100 nM DEX)* (0 nM DEX)) (gene Rab3il1): 3.44 | Expression of mRNA in BFU-E after 4 h 100 nM DEX (RPKM) (gene Rab3il1): 4.94 RPKM | Expression level log2((100 nM DEX)* (0 nM DEX)) (gene Rapgef2): 2.18 | Expression of mRNA in BFU-E after 4 h 100 nM DEX (RPKM) (gene Rapgef2): 3.28 RPKM | Expression of mRNA in BFU-E after 4 h 100 nM DEX (RPKM) (gene Rcsd1): 8.11 RPKM | Expression change log2 ((100 nM DEX)/(0 nM DEX)) (gene Rcsd1): 1.68 | Expression level log2((100 nM DEX)* (0 nM DEX)) (gene Rps6ka1): 9.31 | Expression of mRNA in BFU-E after 4 h 100 nM DEX (RPKM) (gene Rps6ka1): 39.02 RPKM | Expression of mRNA in BFU-E after 4 h 100 nM DEX (RPKM) (gene Serpina3g): 36.06 RPKM | Expression change log2 ((100 nM DEX)/(0 nM DEX)) (gene Serpina3g): 2.06 | Expression of mRNA in BFU-E after 4 h 100 nM DEX (RPKM) (gene Slc30a10): 7.11 RPKM | Expression level log2((100 nM DEX)* (0 nM DEX)) (gene Slc44a2): 9.19 | Expression of mRNA in BFU-E after 4 h 100 nM DEX (RPKM) (gene Slc44a2): 35.91 RPKM | Expression of mRNA in BFU-E after 4 h 100 nM DEX (RPKM) (gene Socs1): 34.03 RPKM | Expression change log2 ((100 nM DEX)/(0 nM DEX)) (gene Socs1): 2.74 | Expression level log2((100 nM DEX)* (0 nM DEX)) (gene Spry1): 5.36 | Expression of mRNA in BFU-E after 4 h 100 nM DEX (RPKM) (gene Spry1): 9.31 RPKM | Expression of mRNA in BFU-E after 4 h 100 nM DEX (RPKM) (gene St3gal2): 23.29 RPKM | Expression of mRNA in BFU-E after 4 h 100 nM DEX (RPKM) (gene Syne1): 7.36 RPKM | Expression change log2 ((100 nM DEX)/(0 nM DEX))2 (gene Tle4): 1.29 | Expression level log2((100 nM DEX)* (0 nM DEX)) (gene Tle4): 6.76 | Expression of mRNA in BFU-E after 4 h 100 nM DEX (RPKM) (gene Tle4): 16.27 RPKM | Expression of mRNA in BFU-E after 4 h 100 nM DEX (RPKM) (gene Tns1): 20.01 RPKM | Expression of mRNA in BFU-E after 4 h 100 nM DEX (RPKM) (gene Tph1): 5.51 RPKM | Expression level log2((100 nM DEX)* (0 nM DEX)) (gene Trib2): 4.11 | Expression of mRNA in BFU-E after 4 h 100 nM DEX (RPKM) (gene Trib2): 6.12 RPKM | Expression of mRNA in BFU-E after 4 h 100 nM DEX (RPKM) (gene Tsc22d3): 19.83 RPKM | Expression level log2((100 nM DEX)* (0 nM DEX)) (gene Txnip): 8.13 | Expression of mRNA in BFU-E after 4 h 100 nM DEX (RPKM) (gene Txnip): 24.97 RPKM | Expression of mRNA in BFU-E after 4 h 100 nM DEX (RPKM) (gene Wdr21): 48.20 RPKM | Expression change log2 ((100 nM DEX)/(0 nM DEX))2 (gene Wdr60): 1.05 | Expression level log2((100 nM DEX)* (0 nM DEX)) (gene Wdr60): 5.00 | Expression of mRNA in BFU-E after 4 h 100 nM DEX (RPKM) (gene Wdr60): 8.14 RPKM | Expression change log2 ((100 nM DEX)/(0 nM DEX))2 (gene Zbtb16): 1.30 | Expression level log2((100 nM DEX)* (0 nM DEX)) (gene Zbtb16): 3.93 | Expression of mRNA in BFU-E after 4 h 100 nM DEX (RPKM) (gene Zbtb16): 6.14 RPKM | Expression of mRNA in BFU-E after 4 h 100 nM DEX (RPKM) (gene Zfp1): 5.67 RPKM | Expression change log2 ((100 nM DEX)/(0 nM DEX)) (gene Zfp1): 2.96 | Expression level log2((100 nM DEX)* (0 nM DEX)) (gene Zfp36l2): 13.36 | Expression of mRNA in BFU-E after 4 h 100 nM DEX (RPKM) (gene Zfp36l2): 163.74 RPKM | Genes upregulated 50% or more (multiplied RPKM count greater than zero): 395 genes
